In patent US10933031B2, “Use of guaiacol for the prevention and treatment of glycogen storage disease” (THE TRUSTEES OF COLUMBIA UNIVERSITY IN THE CITY OF NEW YORK, priority 2016, dated 2021):
Entries after “also recorded” stand apart in the source; their conditions may differ.

Key:
[1] = system: HepG2 liver epithelial cell line; test: Glycogen content in HepG2 cells cultured with cobalt chloride; assay type: cell-based; details: DMEM supplemented with 150 μM cobalt chloride; results not shown
Procedure: (§1) One hit was obtained corresponding to a compound that decreased polyglucosan synthesis more than 50% at 6.75 μM concentration (FIG. 3). […] This compound identified was guaiacol and has been used as an expectorant and flavoring food additive but is no longer being marketed for medical purposes.

[2] = Tolerability: grip tests and weight gain or loss; assay type: in vivo, mouse; details: 22.5 mg/kg in drinking water
Procedure: (§2) Mice were treated with guaiacol in drinking water for 12 months every other day by preparing fresh guaiacol solution in water (3.8 g/liter or 3.1 ml/liter) considering the fact that an adult mouse drinks 6 ml water every day (Bachamov et al. 2002).

Gbe1^ys/ys mice [3] = test: Lifespan and disease signs of Gbe1^ys/ys mice on guaiacol in drinking water; assay type: in vivo, mouse
Procedure: FIG. 9 is a Kaplan-Meier plot which illustrates the incidence of death in Gbe1^ys/ys (n=47), versus wild type mice (n=29), and guaiacol-treated Gbe1^ys/ys and wild type mice (n=4 each).
as §2
Treated Gbe1^ys/ys mice lived up to 24 months at time they were sacrificed as required by the protocol (FIG. 9).

Gbe1^neo/− MEF = test: High throughput PAS-fluorescence screen of polyglucosan bodies in GBE-deficient MEF; assay type: cell-based, mouse
Procedure: Skin fibroblasts from wild type or Gbe1^neo/− E17.5 embryos were cultured to establish the MEF cell line by methods known in the art (FIG. 2). Diastase-resistant PAS positive staining was used specifically for carbohydrate staining. After paraformaldehyde fixation, cells were washed with PBS and normal glycogen was degraded by alpha-amylase digestion. The residual polysaccharides and PG in MEF were treated with periodic acid to oxidize sugars to aldehydes, which react with the Schiff reagent and stain pink. Although PAS staining was very efficient to detect PG (see FIGS. 2A, 2B, 2C, 2E, and 2G), the IN Cell 2000 cell detection system relies on fluorescence staining. PAS staining itself is fluorescent due to pararosanilin reagents, such as Rhodamine and TRITC, which can be excited (400 nm) and emits light detectable in red range ([…]) (FIGS. 2D, 2F and 2H).
To set up the automated detection system, control Gbe1^+/+ and Gbe1^neo/− MEFs were plated at different density on 384-well plates in order to obtain optimal cell density. A second important optimization regarded the diastase digestion of normal glycogen, keeping in mind that PGBs are resistant to diastase digestion and longer incubation times and/or higher enzyme concentrations are needed to digest PG. […] After diastase digestion, they were stained with PAS, and, after brief nuclear staining with Hoechst, the plates were analyzed by IN Cell 2000, GE Healthcare (Piscataway, N.J.), a high-throughput imaging system capable of performing high-content analysis using a wide array of micro plates. […] Automated quantitative results were obtained in terms of relative fluorescence per cell. Relative fluorescence per positive cells were analyzed and its significance were determined by z score according to plate average or by B score if there is a positional effect related to row and column that occurs in multi well plate cell cultures (Brideau et al. 2003). […]
1500 cells were plated per well to 384-well plates. […] The following day the cells were stained and analyzed as set forth in Example 3.

[4] = HPLC of AMP, ADP, ATP and adenosine in muscle extracts; assay type: in vivo, mouse; details: for decrease in adenosine levels: muscle
Description: FIG. 8 is a graph depicting results of high performance liquid chromatography analysis of adenosine in muscle of wild type and Gbe1^ys/ys mice, and guaiacol-treated wild type and Gbe1^ys/ys mice.
[…], the heterotrimeric protein AMPK is formed by α, β, and γ subunits. Each of these three subunits takes on a specific role in both the stability and activity of AMPK. (Stapleton et al. 1996). Specifically, the γ subunit includes four particular cystathionine beta synthase (CBS) domains giving AMPK its ability to sensitively detect shifts in the AMP: ATP ratio. The four CBS domains create two binding sites for AMP commonly referred to as Bateman domains. Binding of one AMP to a Bateman domain cooperatively increases the binding affinity of the second AMP to the other Bateman domain (Akman et al. 2007).

GYS1 = test: Western blot of GYS1 phosphorylation in muscle extracts after oral guaiacol; assay type: in vivo, mouse; details: wild type mice, 45-720 mg/kg oral gavage, muscle extracts two hours after administration
Description: FIG. 4 is a Western blot of GYS1 and GAPDH in muscle extracts obtained from wild type mice two hours after administration with guaiacol, suspended in water, in the indicated dosage amounts on the top panel by oral gavage.
Glycogen synthase is an allosteric enzyme that can be activated by glucose 6 phosphate or inactivated by phosphorylation of a serine residue on the enzyme. Thus, the phosphorylation status of GYS1 in muscle extracts which is the indicator of glycogen synthase activity was determined.
Wild type mice were administered guaiacol suspended in water at concentrations of 45, 90, 180, 360, and 720 mg/kg. Two hours after administration, muscle extracts were obtained and Western blot analysis of GYS1 was performed.

[5] = Glucose tolerance test (blood glucose); assay type: in vivo, mouse; details: after overnight fasting and glucose injection
Procedure: Blood glucose content was measured at times indicated in guaiacol-treated and untreated wild type and APBD (p.Y329s) mice. n=3 in each group.
After overnight fasting, mice were injected glucose and the blood glucose levels were measured.

[6] = system: AMP kinase alpha (AMPK-α); test: Western blot of AMP kinase Thr 172 phosphorylation; assay type: in vivo, mouse; details: tissue extracts of treated wild type and Gbe1^ys/ys mice, relative to total AMPK-α
Description: FIG. 7 is a Western blot of phospho AMPK-α and total AMPK in muscle extracts obtained from wild type and Gbe1^ys/ys mice, and guaiacol-treated wild type and Gbe1^ys/ys mice.
Glycogen synthesis and breakdown is regulated according to the energy state of the cell. When glucose is abundant amount of ATP is high and AMP kinase remains un-phosphorylated. However when glucose concentrations go down so do the ATP levels because it is being converted to ADP and AMP.

Gbe1^ys/ys mice [7] = test: Tissue glycogen content in treated wild type and Gbe1^ys/ys mice; assay type: in vivo, mouse
Procedure: FIG. 5 is a graph depicting the results of heart, brain, muscle and liver glycogen content in wild type and Gbe1^ys/ys mice, and guaiacol-treated wild-type and Gbe1^ys/ys mice. Glycogen was measured after a 16 hour fast (n=4 for each treatment). Glycogen content is expressed as percent glucose mg/gram fresh tissue. Error bars represent the mean±SD, P<0.001 where indicated (*).
A mouse model of GBE deficiency created by knocking in via homologous recombination the most common human GBE1 mutation (p.Y329S) found in Ashkenazi Jewish patients has been developed by the inventors and designated Gbe1^ys/ys (Akman et al. 2015).
After one month of treatment, four mice from each group (untreated wild type and Gbe1^ys/ys mice and guaiacol-treated wild type and Gbe1^ys/ys mice) were sacrificed and tissue glycogen contents were measured as described by Pederson et al. 2004.

MEF = test: Glycogen content of MEF grown in cobalt supplemented media; assay type: cell-based, mouse; details: n=3, FIG. 3B
Procedure: FIGS. 3A-3C show guaiacol decreases glycogen synthesis. […] FIG. 3C is a graph showing the results of relative glycogen content of cells grown in cobalt supplemented media after 3 days of guaiacol treatment at concentrations indicated on horizontal axis.
as §1

[8] = treated Gbe1^ys/ys mice, long-term treatment
[9] = one month of treatment, 16 hour fast, n=4

## COc1ccccc1O [guaiacol]
[1]
  glycogen content in HepG2: decreased glycogen content
[2]
  effect on animal behavior (grip tests, weight gain or loss): did not adversely affect the animal's behavior
Gbe1^ys/ys mice [3]; Gbe1^ys/ys mice, guaiacol in drinking water, sacrificed at 24 months as required by protocol
  lifespan of treated mice: up to 24 months
Gbe1^ys/ys mice [3]; treated Gbe1^ys/ys mice
  gait of treated mice: spastic gait
  penile prolapse in male mice: did not have penile prolapse; also recorded: preventing penile prolapse
Gbe1^ys/ys mice [3]; [8]
  PG content in the liver: decreased PG content
  polyglucosan in the muscle brain and heart: slightly higher polyglucosan
Gbe1^neo/− MEF; 6.75 μM, three days treatment, JHCCL screen
  decrease of polyglucosan synthesis: more than 50%
Gbe1^neo/− MEF; 10 μM guaiacol, MEF cultures, FIG. 3A
  PAS stained granules in the cytosol (diastase treated): decreased PAS stained granules
Gbe1^neo/− MEF; JHCCL screen, concentration not stated
  decrease of polyglucosan synthesis and accumulation: 50%
[4]; muscle extracts, treated vs untreated wild type or Gbe1^ys/ys mice
  AMP, ADP and ATP levels: no significant difference
[4]; Gbe1^ys/ys mice, n=4, p<0.03
  decrease in adenosine levels: 48%
[4]; wild-type mice, n=4, p<0.02
  decrease in adenosine levels: 53%
GYS1
  phosphorylation of GYS1 compared to total GYS1 protein: increased
[5]
  duration of high blood glucose versus control mice: remained high longer
[5]; wild type and APBD (p.Y329s) mice, n=3
  blood glucose level versus control mice: higher blood glucose; also recorded: increases blood glucose concentration
[6]
  Thr 172 phosphorylation of AMP kinase: increased Thr 172 phosphorylation
Gbe1^ys/ys mice [7]; as restated in Example 7
  glycogen in brain, muscle and heart: increased
Gbe1^ys/ys mice [7]; later treatments, treated Gbe1^ys/ys mice
  glycogen content in the brain and muscle compared to untreated Gbe1^ys/ys mice: slight increase
Gbe1^ys/ys mice [7]; [9]
  glycogen content in brain heart and muscle: did not change
  glycogen content of the liver: significant decrease; also recorded: decreased
MEF
  glycogen content in MEF: decrease of glycogen content
